From patent US20210275596A1, “APPLICATION OF GENE PROFILE FOR CELLS ISOLATED USING FRESH-TRACER” (CELL2IN, INC., priority 2018, published 2021)

Key:
Format in all cases: cell-based, human
HeLa cells [1] = experiment: FR monitoring in cells loaded with FreSH-tracer; conditions: for change of FR: HeLa cells equilibrated with 5 μM FreSH-tracer for 2 hours
Protocol: To utilize a FreSH-tracer for GSH monitoring in living cells, its cytotoxicity was evaluated. […] HeLa cells were equilibrated with treatment of 5 μM FreSH-tracer for 2 hours. […] The FR in the nucleus was about 1.5- to 2-fold higher than that of the cytoplasm.
The in vitro experiments described above established that H2O2 treatment diminishes only the FRGSH, while having little effect on the FRPSH. […] Thus, the FreSH-tracer can report the real-time dynamic changes of GSH concentration in live cells under oxidative stress.

hES-MSCs [2] = experiment: Chemotaxis to PDGF-AA; conditions: for effect on chemoattraction to PDGF: naive hES-MSCs
Protocol: FIGS. 4A, 4B, 4C and 4D are graphs showing analyses of colony-forming unit fibroblasts (CFU-F; n=15), limiting dilution by replating primary CFU colonies (n=6), chemotaxis to stromal derived factor-1α (SDFα; 150 ng/mL, n=8), and chemotaxis to 10 ng/mL platelet-derived growth factor (PDGF)-AA in the absence or presence of STI571 (0.5 μg/mL), a PDGFR inhibitor (n=8).
At this time, for differentiation media, the cells were maintained and cultured in each of adipogenic induction medium (DMEM supplemented with 5% FBS, […], […], […] and 0.5 mM isobutylmethylxanthine), osteogenic induction medium (DMEM supplemented with 5% FBS, […], […], and 10 mM glycerophosphate), and chondrogenic induction medium (e.g., StemPro chondrogenesis, Invitrogen). FIG. 3 is a graph showing the results of qPCR performed to quantify lineage-specific genes in non-differentiated(Non) FR^High cells and FR^Low cells and differentiated(Diff) FR^High cells and FR^Low cells. Additionally, FR^High hES-MSCs had approximately 4.7- and 4.9-fold higher numbers of CFU-F than did FR^Mild and FR^Low cells, respectively (FIG. 4A).

hES-MSCs [3] = experiment: GSH depletion or supplementation: clonogenic and migration capacities
HeLa cells [4] = experiment: Mitochondrial FR monitoring with MitoFreSH-tracer
From the text: The mitochondrion is the major site of endogenous ROS generation during normal oxidative metabolism. Cytosolic GSH is transported to the mitochondria, preventing macromolecular damage and modulating ROS-induced signaling. To further analyze the FR heterogeneity in the cytoplasm, a mitochondria-targeting FreSH-tracer derivative, designated MitoFreSH-tracer was synthesized by attaching a triphenylphosphonium moiety to a FreSH-tracer.

O=[N+]([O-])c1ccc(Cl)c([N+](=O)[O-])c1 [1-chloro-2,4-dinitrobenzene]
restoring of FR after diamide (HeLa cells [1]; GSH-depleted HeLa cells): abrogated

CCCCS(=N)(=O)CCC(N)C(=O)O (centres unmarked) [BSO, buthionine sulfoximine]
effect on chemoattraction to PDGF (hES-MSCs [2]): significant repression
effect on enhanced clonogenic and migration capacities and related gene upregulation (hES-MSCs [3]; FR^High hES-MSCs): severely impaired

O[C@@H](CS)[C@@H](O)CS [DTT]
change of FR (HeLa cells [1]): rapidly increased

CCOC(=O)CNC(=O)[C@H](CS)NC(=O)CC[C@H](N)C(=O)O [GSH-EE, glutathione ethyl ester]
effect on chemoattraction to PDGF (hES-MSCs [2]): activation
effect on declined cellular functions (hES-MSCs [3]; FR^Low hES-MSCs): reversed

CCN1C(=O)C=CC1=O [NEM]
change of FR (HeLa cells [1]): gradually decreased

Cc1ccc(NC(=O)c2ccc(CN3CCN(C)CC3)cc2)cc1Nc1nccc(-c2cccnc2)n1 [STI571]
effect on PDGF chemotactic activity of FR^High cells (hES-MSCs [2]; STI571 0.5 μg/mL, 10 ng/mL PDGF-AA): significantly blocked

CN(C)C(=O)/N=N/C(=O)N(C)C [diamide]
change of mitochondrial FR (HeLa cells [4]): decreased
change of FR (HeLa cells [1]): gradually decreased

antimycin A
change of mitochondrial FR (HeLa cells [4]): concentration-dependent decrease
